Measurements published in patent US11339419B2, “Scavenger protein(s) for improved preservation of analyte detection sensor(s) and method(s) of use thereof” (Siemens Healthcare Diagnostics Inc., priority 2017, dated 2022).
Values joined by “and” are separate entries in the source; they are usually repeats but may differ in a detail not shown here. Equal entries are not always repeated.

Tests used:
Assay type in all cases: biochemical
[1] = test system: sarcosine oxidase (BBI Solutions); assay: BBI Solutions Sarcosine Oxidase Enzyme Absorbance with BSA and MIT; settings: for Sarcosine Oxidase Enzyme Absorbance, MEAN of 1-5 / Sarcosine Oxidase Enzyme Absorbance, solutions 1-5: Day 14, 100 ppm MIT, 37° C.
Description: Tables 1-4 depict aqueous solutions comprising varying concentrations of BSA (at concentrations of 0 mg/mL, 5 mg/mL, 25 mg/mL, and 50 mg/mL), varying concentrations of MIT (at concentrations of 50 parts per million and 100 parts per million) or Proclin™ 300 (at concentrations of 0.7% and 1.4%) biocides over a particular time period (measurements were taken at days 0, 4, and 14 after exposure of the enzyme(s) to the aqueous solutions) and the associated enzyme absorbance measurements for sarcosine oxidase (commercially offered for sale by BBI Solutions and Toyobo). Absorbance measurements of the sarcosine oxidase enzyme(s) were taken via spectrophotometer for each aqueous solution (represented as columns 1-5 in Tables 1-4—column 6 is a blank), the absorbance being directly proportional to the enzyme activity being measured-which for Tables 1-4 is sarcosine oxidase enzyme activity. Accordingly, the higher the absorbance measurement, the higher the enzyme activity of sarcosine oxidase. Columns 7-11 represent five replicate readings in which the aqueous solution only contains BSA (i.e., there is no biocide(s) present in the aqueous solution). In addition, the mean values, standard deviations, and coefficients of variation are also presented for the enzyme activity/absorbance of each aqueous solution. All measurements were taken at 37° C.
As depicted below in Table 1, sarcosine oxidase (commercially offered for sale by BBI Solutions) enzyme activity is measured against various concentrations of MIT (biocide) and BSA (scavenger protein) over a period of 14 days (with absorbance measurements taken at 0, 4, and 14 days) for five different aqueous solutions (represented as columns 1-5—column 6 is a blank).

[2] = test system: sarcosine oxidase (BBI Solutions); assay: BBI Solutions Sarcosine Oxidase Enzyme Absorbance with BSA and Proclin 300
From the text: (§1) Absorbance measurements of the sarcosine oxidase enzyme(s) were taken via spectrophotometer for each aqueous solution (represented as columns 1-5 in Tables 1-4—column 6 is a blank), the absorbance being directly proportional to the enzyme activity being measured-which for Tables 1-4 is sarcosine oxidase enzyme activity. Accordingly, the higher the absorbance measurement, the higher the enzyme activity of sarcosine oxidase. […] In addition, the mean values, standard deviations, and coefficients of variation are also presented for the enzyme activity/absorbance of each aqueous solution. All measurements were taken at 37° C.

creatininase (Toyobo) = assay: Toyobo Creatininase Enzyme Absorbance with BSA and Proclin 300
From the text: as §1, with “creatininase” for “sarcosine oxidase”, “5-8—column” for “1-4—column”, “5-8” for “1-4”, “creatininase.” for “sarcosine oxidase.”, “all” for “also”

[3] = Day 0, BSA 5 mg/mL only, no Proclin 300, line of 0.7% Proclin 300
[4] = Day 0, BSA 5 mg/mL only, no Proclin 300, line of 1.4% Proclin 300
[5] = Day 0, BSA 25 mg/mL only, no Proclin 300, line of 0.7% Proclin 300
[6] = Day 0, BSA 25 mg/mL only, no Proclin 300, line of 1.4% Proclin 300
[7] = Day 0, BSA 50 mg/mL only, no Proclin 300, line of 0.7% Proclin 300
[8] = Day 0, BSA 50 mg/mL only, no Proclin 300, line of 1.4% Proclin 300
[9] = Day 4, BSA 5 mg/mL only, no Proclin 300, line of 0.7% Proclin 300
[10] = Day 4, BSA 5 mg/mL only, no Proclin 300, line of 1.4% Proclin 300
[11] = Day 4, BSA 25 mg/mL only, no Proclin 300, line of 0.7% Proclin 300
[12] = Day 4, BSA 25 mg/mL only, no Proclin 300, line of 1.4% Proclin 300
[13] = Day 4, BSA 50 mg/mL only, no Proclin 300, line of 0.7% Proclin 300
[14] = Day 4, BSA 50 mg/mL only, no Proclin 300, line of 1.4% Proclin 300
[15] = Day 14, BSA 5 mg/mL only, no Proclin 300, line of 0.7% Proclin 300
[16] = Day 14, BSA 5 mg/mL only, no Proclin 300, line of 1.4% Proclin 300
[17] = Day 14, BSA 25 mg/mL only, no Proclin 300, line of 0.7% Proclin 300
[18] = Day 14, BSA 25 mg/mL only, no Proclin 300, line of 1.4% Proclin 300
[19] = Day 14, BSA 50 mg/mL only, no Proclin 300, line of 0.7% Proclin 300
[20] = Day 14, BSA 50 mg/mL only, no Proclin 300, line of 1.4% Proclin 300
[21] = days 4 and 14, only BSA, no Proclin 300
[22] = Day 0, BSA 5 mg/mL only, no Proclin 300, listed as of 0.7% Proclin 300
[23] = Day 0, BSA 5 mg/mL only, no Proclin 300, listed as of 1.4% Proclin 300
[24] = Day 0, BSA 25 mg/mL only, no Proclin 300, listed as of 0.7% Proclin 300
[25] = Day 0, BSA 25 mg/mL only, no Proclin 300, listed as of 1.4% Proclin 300
[26] = Day 0, BSA 50 mg/mL only, no Proclin 300, listed as of 0.7% Proclin 300
[27] = Day 0, BSA 50 mg/mL only, no Proclin 300, listed as of 1.4% Proclin 300

bovine serum albumin [BSA]
Sarcosine Oxidase Enzyme Absorbance, MEAN of 1-5 ([1]; 5 mg/mL BSA): 1.43
Sarcosine Oxidase Enzyme Absorbance, solutions 1-5 ([1]; 5 mg/mL BSA): 1.479 and 1.506 and 1.389 and 1.39 and 1.577
Sarcosine Oxidase Enzyme Absorbance, MEAN of 1-5 ([1]; 25 mg/mL BSA): 1.40
Sarcosine Oxidase Enzyme Absorbance, solutions 1-5 ([1]; 25 mg/mL BSA): 1.422 and 1.404 and 1.428 and 1.458 and 1.477
Sarcosine Oxidase Enzyme Absorbance, MEAN of 1-5 ([1]; 50 mg/mL BSA): 1.43
Sarcosine Oxidase Enzyme Absorbance, solutions 1-5 ([1]; 50 mg/mL BSA): 1.442 and 1.477 and 1.456 and 1.492 and 1.478
absorbance of the sarcosine oxidase enzyme compared to samples containing 0 mg/mL of BSA ([1]; days 4 and 14, 5, 25 and 50 mg/mL BSA, with MIT): increased absorbance
sarcosine oxidase absorbance, solutions 7-11 ([1]; days 4 and 14, only BSA, no MIT): increased (or at least maintained)
Absorbance, solutions 7-11 [2, 3]: 1.447 and 1.677 and 1.453 and 1.748
MEAN absorbance, solutions 7-11 [2, 3]: 1.51
Absorbance, solutions 7-11 [2, 4]: 1.464 and 1.437 and 1.453 and 1.458 and 1.444
MEAN absorbance, solutions 7-11 [2, 4]: 1.40
Absorbance, solutions 7-11 [2, 5]: 1.429 and 1.441 and 1.415 and 1.398 and 1.406
MEAN absorbance, solutions 7-11 [2, 5]: 1.37
Absorbance, solutions 7-11 [2, 6]: 1.39 and 1.396 and 1.375 and 1.392 and 1.376
MEAN absorbance, solutions 7-11 [2, 6]: 1.34
Absorbance, solutions 7-11 [2, 7]: 1.376 and 1.375 and 1.399 and 1.416 and 1.421
MEAN absorbance, solutions 7-11 [2, 7]: 1.35
Absorbance, solutions 7-11 [2, 8]: 1.402 and 1.394 and 1.401 and 1.397 and 1.396
MEAN absorbance, solutions 7-11 [2, 8]: 1.35
Absorbance, solutions 7-11 [2, 9]: 1.505 and 1.507 and 1.518 and 1.472 and 1.484
MEAN absorbance, solutions 7-11 [2, 9]: 1.45
Absorbance, solutions 7-11 [2, 10]: 1.446 and 1.471 and 1.449 and 1.46 and 1.484
MEAN absorbance, solutions 7-11 [2, 10]: 1.42
Absorbance, solutions 7-11 [2, 11]: 1.45 and 1.451 and 1.465 and 1.418 and 1.415
MEAN absorbance, solutions 7-11 [2, 11]: 1.40
Absorbance, solutions 7-11 [2, 12]: 1.416 and 1.421 and 1.436 and 1.431 and 1.426
MEAN absorbance, solutions 7-11 [2, 12]: 1.38
Absorbance, solutions 7-11 [2, 13]: 1.416 and 1.425 and 1.435 and 1.402 and 1.421
MEAN absorbance, solutions 7-11 [2, 13]: 1.38
Absorbance, solutions 7-11 [2, 14]: 1.38 and 1.397 and 1.399 and 1.403
MEAN absorbance, solutions 7-11 [2, 14]: 1.35
Absorbance, solutions 7-11 [2, 15]: 1.53 and 1.542 and 1.526 and 1.538 and 1.535
MEAN absorbance, solutions 7-11 [2, 15]: 1.49
Absorbance, solutions 7-11 [2, 16]: 1.527 and 1.53 and 1.526 and 1.566
MEAN absorbance, solutions 7-11 [2, 16]: 1.49
Absorbance, solutions 7-11 [2, 17]: 1.498 and 1.527 and 1.533 and 1.503 and 1.505
MEAN absorbance, solutions 7-11 [2, 17]: 1.47
Absorbance, solutions 7-11 [2, 18]: 1.499 and 1.497 and 1.533 and 1.539 and 1.525
MEAN absorbance, solutions 7-11 [2, 18]: 1.47
Absorbance, solutions 7-11 [2, 19]: 1.493 and 1.499 and 1.505 and 1.513 and 1.541
MEAN absorbance, solutions 7-11 [2, 19]: 1.46
Absorbance, solutions 7-11 [2, 20]: 1.467 and 1.491 and 1.482 and 1.534 and 1.529
MEAN absorbance, solutions 7-11 [2, 20]: 1.46
absorbance of the sarcosine oxidase enzyme compared to samples containing 0 mg/mL of BSA ([2]; days 4 and 14, 5, 25 and 50 mg/mL BSA, with Proclin 300): increased absorbance
sarcosine oxidase absorbance, solutions 7-11 [2, 21]: increased (or at least maintained)
Absorbance, solutions 7-11 (creatininase (Toyobo); [22]): 0.749
MEAN absorbance, solutions 7-11 (creatininase (Toyobo); [22]): 0.61
Absorbance, solutions 7-11 (creatininase (Toyobo); [23]): 0.569 and 0.573 and 0.57 and 0.582
MEAN absorbance, solutions 7-11 (creatininase (Toyobo); [23]): 0.47
Absorbance, solutions 7-11 (creatininase (Toyobo); [24]): 0.529
MEAN absorbance, solutions 7-11 (creatininase (Toyobo); [24]): 0.40
Absorbance, solutions 7-11 (creatininase (Toyobo); [25]): 0.508 and 0.507 and 0.518 and 0.514
MEAN absorbance, solutions 7-11 (creatininase (Toyobo); [25]): 0.41
Absorbance, solutions 7-11 (creatininase (Toyobo); [26]): 0.973
MEAN absorbance, solutions 7-11 (creatininase (Toyobo); [26]): 1.39
Absorbance, solutions 7-11 (creatininase (Toyobo); [27]): 0.488 and 0.464 and 0.506
MEAN absorbance, solutions 7-11 (creatininase (Toyobo); [27]): 0.39
MEAN absorbance, solutions 7-11 (creatininase (Toyobo); Day 4, BSA 5 mg/mL only, no Proclin 300, listed as of 0.7% Proclin 300): 0.87
MEAN absorbance, solutions 7-11 (creatininase (Toyobo); Day 4, BSA 5 mg/mL only, no Proclin 300, listed as of 1.4% Proclin 300): 0.78
MEAN absorbance, solutions 7-11 (creatininase (Toyobo); Day 4, BSA 25 mg/mL only, no Proclin 300, listed as of 0.7% Proclin 300): 0.68
MEAN absorbance, solutions 7-11 (creatininase (Toyobo); Day 4, BSA 25 mg/mL only, no Proclin 300, listed as of 1.4% Proclin 300): 0.64
MEAN absorbance, solutions 7-11 (creatininase (Toyobo); Day 4, BSA 50 mg/mL only, no Proclin 300, listed as of 0.7% Proclin 300): 0.56
MEAN absorbance, solutions 7-11 (creatininase (Toyobo); Day 4, BSA 50 mg/mL only, no Proclin 300, listed as of 1.4% Proclin 300): 0.54
MEAN absorbance, solutions 7-11 (creatininase (Toyobo); Day 14, BSA 5 mg/mL only, no Proclin 300, listed as of 0.7% Proclin 300): 0.92
MEAN absorbance, solutions 7-11 (creatininase (Toyobo); Day 14, BSA 5 mg/mL only, no Proclin 300, listed as of 1.4% Proclin 300): 0.90
MEAN absorbance, solutions 7-11 (creatininase (Toyobo); Day 14, BSA 25 mg/mL only, no Proclin 300, listed as of 0.7% Proclin 300): 0.71
MEAN absorbance, solutions 7-11 (creatininase (Toyobo); Day 14, BSA 25 mg/mL only, no Proclin 300, listed as of 1.4% Proclin 300): 0.71
MEAN absorbance, solutions 7-11 (creatininase (Toyobo); Day 14, BSA 50 mg/mL only, no Proclin 300, listed as of 0.7% Proclin 300): 0.58
MEAN absorbance, solutions 7-11 (creatininase (Toyobo); Day 14, BSA 50 mg/mL only, no Proclin 300, listed as of 1.4% Proclin 300): 0.57
absorbance of the creatininase enzyme compared to samples containing 0 mg/mL of BSA (creatininase (Toyobo); day 4, Proclin 300 0.7%, 5, 25 and 50 mg/mL BSA): increased (albeit a mild increase)
creatininase absorbance, solutions 7-11 (creatininase (Toyobo); [21]): increased (or at least maintained)
